We go through ten compounds from patent publication US20230165829A1, “FLAVAGLINE DERIVATIVES FOR INHIBITION OF KRAS ONCOGENE ACTIVATION” (KHR BIOTEC GMBH, priority 2018, published 2023).

Like-named read-outs stand apart in the source and are kept apart here.

In test [1] the test system is KRAS G12V.
Test [2] deals with RAS. The settings on record: cited from earlier work.
Test [3] has as its system RAS. Description: Active Ras pull down assay (CRAF-RBD, Ral-GDS-RA) after EGF stimulation in HeLa cells. The settings on record: pre-treatment at 200 nM, 1 h before EGF stimulation. The format is cell-based.

As to `COc1cc(OC)c2c(c1)O[C@@]1(c3ccc(Cl)cc3)[C@H](c3cccc(F)c3)C[C@H](NC(=O)N(C)C)[C@@]21O` [FL42], the “inactivation of KRAS (inhibition of KRAS activation), relative luminescence vs DMSO” value in test [1] was “inactivation of KRAS”.

For the compound `CNCCOc1ccc2c(c1)O[C@@]1(c3ccc(Cl)cc3)[C@H](c3ccccc3)C[C@@H](O)[C@@]21O` [IMD-26260], in test [1], the “inactivation of KRAS (inhibition of KRAS activation), relative luminescence vs DMSO” value is recorded as “inactivation of KRAS”. Same read-out and setting: with `COc1cc(OC)c2c(c1)O[C@@]1(c3ccc(Br)cc3)[C@H](c3cccc(F)c3)C[C@H](NC(=O)N(C)C)[C@@]21O` [FL37] the entry was “inactivation of KRAS”; with `COc1cc(OC)c2c(c1)O[C@@]1(c3ccc(Br)cc3)[C@H](c3ccccc3)C[C@@H](O)[C@@]21O` [FL3], “inactivation of KRAS”. Still for that read-out and setting: with `COc1ccc([C@@]23Oc4cc(OC)cc(OC)c4[C@]2(O)[C@H](OC=O)C[C@H]3c2ccccc2)cc1` [FL19] the entry was “inactivation of KRAS”. As for `COc1ccc([C@@]23Oc4cc(OC)cc(OC)c4[C@]2(O)[C@H](O)[C@H](C(=O)N(C)C)[C@H]3c2ccccc2)cc1` [rocaglamide], in test [2], the “RAS-activation in KRAS-mutated cell lines” value is recorded as “inhibits RAS-activation”; the “specificity for KRAS versus isoforms HRAS and NRAS” value is “not specific enough to differentiate between KRAS and a closely related isoform HRAS and NRAS”. In test [3], the “activation of RAS in response to EGF (GTP-loaded Ras pull down)” value was “inhibited”. For the same compound, the “inactivation of KRAS (inhibition of KRAS activation), relative luminescence vs DMSO” value in test [1] (100 nM compounds for 4 h, KRAS G12V transfected HeLa cells, similar results with KRAS WT + EGF (100 ng/ml, 30 min)) was “inactivation of KRAS”.

As for `COC(=O)[C@H]1[C@@H](O)[C@@]2(O)c3c(OC)cc(OC)cc3O[C@@]2(c2ccc(Br)cc2)[C@@H]1c1ccccc1` [FL10], the “inactivation of KRAS (inhibition of KRAS activation), relative luminescence vs DMSO” value in test [1] was “inactivation of KRAS”.

Regarding `CNC(=O)[C@H]1[C@@H](O)[C@@]2(O)c3c(OC)cc(OC)cc3O[C@@]2(c2ccc(Br)cc2)[C@@H]1c1ccccc1` [FL13], the “inactivation of KRAS (inhibition of KRAS activation), relative luminescence vs DMSO” value in test [1] is recorded as “inactivation of KRAS”. With `COc1ccc([C@@]23Oc4cc(OC)cc(OC)c4[C@]2(O)[C@H](O)C[C@H]3c2cccc(F)c2)cc1` [FL15], the “inactivation of KRAS (inhibition of KRAS activation), relative luminescence vs DMSO” value in test [1] was “inactivation of KRAS”.

As to `COc1cc(OC)c2c(c1)O[C@@]1(c3ccc(Br)cc3)[C@H](c3cccc(F)c3)C[C@H](NC(N)=O)[C@@]21O` [FL40], in test [1], the “inactivation of KRAS (inhibition of KRAS activation), relative luminescence vs DMSO” value is given as “inactivation of KRAS”.
